From publication PMC12332266 (Frontiers in Pharmacology, 2025)
Where two headings read alike, the source gives them in different places. Each block holds one compound with its values, some of them ahead of it.

Experiments:
[1] = system: hiPSC-CM (iCell Cardiomyocytes^2); assay: Intracellular miRNA expression by RT-qPCR in hiPSC-CM pellets after 72-hour treatment; conditions: for hsa-miR-7-5p fold change, intracellular / hsa-miR-96-5p fold change, intracellular / hsa-miR-126-3p fold change, intracellular / hsa-miR-133b fold change, intracellular / hsa-miR-146b-5p fold change, intracellular / hsa-miR-182-5p fold change, intracellular / hsa-miR-185-3p fold change, intracellular / hsa-miR-187-3p fold change, intracellular / hsa-miR-208b-3p fold change, intracellular / hsa-miR-365a-5p fold change, intracellular / hsa-miR-[…] change, intracellular / hsa-miR-29a-5p fold change, intracellular: 72 h
Protocol: (§1) Culture media change was performed every 2 days.
Total RNA was extracted from hiPSC-CM using the miRNeasy 96 Kit (Qiagen, Hilden, Germany) following the manufacturer’s recommendations. After the extraction, RNA purity was assessed by NanoDrop™ 8000 Spectrophotometer (Thermo Fisher Scientific Inc.). 5–10 ng/μL of RNA per sample were reverse transcribed and pre-amplified by using the TaqMan™ Advanced miRNA cDNA Synthesis Kit (Thermo Fisher Scientific Inc.). The synthesized cDNA was used for RT-qPCR with selected TaqMan™ assays (Thermo Fischer Scientific Inc.). RT-qPCR was carried out following the Applied Biosciences TaqMan miRNA expression assay protocol on a ViiA7 instrument (Thermo Fisher Scientific, Inc.). […] Therefore, to maximize the number of drugs and concentrations, explored in the same study, we pooled the triplicates for intracellular profiling of miRNAs. Therefore, no statistical analysis was performed on the data of miRNA profiling in the pellets of hiPSC-CM.
Following RTCA CardioECR assessment, hiPSC-CM cell pellets were collected, and total RNA was extracted and purified to investigate miRNAs upregulation by RT-qPCR. […] For the initial assessment of intracellular miRNAs in 12 different treatments, encompassing various drug classes, we used a panel of 17 miRNAs, which we selected from the publicly available data focusing mainly on in vitro models and structural cardiotoxicants (Supplementary Table S2).

[2] = ref extensive literature search, cited from earlier work
[3] = system: hiPSC-CM (iCell Cardiomyocytes^2); assay: RTCA CardioECR assessment (impedance and electrophysiology parameters)
Protocol: as §1
After seeding on fibronectin-coated xCELLigence ePlates (Agilent Technologies, Inc. Santa Clara, CA, USA), iCell^2 CM were monitored continuously through impedance electrodes. The following impedance parameters were measured: Cell Index (CI, measure of cell “health” and monolayer integrity), beating rate (BR) and amplitude (CI Amplitude, magnitude of contraction). Electrophysiology-like parameters (Field Potential Duration (FPD), considered as a surrogate for QT in in vivo studies, and Spike Amplitude (SA), depolarization induced by Na^+ channel opening) were measured starting from day 4–6, following the monolayer formation. […] All RTCA CardioECR data were double normalized (DMSO control and the baseline) with no further statistical group comparison for the normalized parameters. The variability of the data within the treatment groups was assessed by standard deviation.

miRNAs hiPSC-CM pellet, MEC overall [1]: 0.3 µM
hsa-miR-7-5p fold change, intracellular ([1]; 0.3 µM): 1.4
hsa-miR-96-5p fold change, intracellular ([1]; 0.3 µM): 9.0
hsa-miR-126-3p fold change, intracellular ([1]; 0.3 µM): 1.6
hsa-miR-133b fold change, intracellular ([1]; 0.3 µM): 2.7
hsa-miR-146b-5p fold change, intracellular ([1]; 0.3 µM): 0.8
hsa-miR-182-5p fold change, intracellular ([1]; 0.3 µM): 2.5
hsa-miR-185-3p fold change, intracellular ([1]; 0.3 µM): 6.4
hsa-miR-187-3p fold change, intracellular ([1]; 0.3 µM): 1.7
hsa-miR-208b-3p fold change, intracellular ([1]; 0.3 µM): 1.2
hsa-miR-365a-5p fold change, intracellular ([1]; 0.3 µM): 5.4
hsa-miR-[…] change, intracellular ([1]; 0.3 µM): 0.8
hsa-miR-7-5p fold change, intracellular ([1]; 1 µM): 0.8
hsa-miR-29a-5p fold change, intracellular ([1]; 1 µM): 3.6
hsa-miR-96-5p fold change, intracellular ([1]; 1 µM): 4.7
hsa-miR-126-3p fold change, intracellular ([1]; 1 µM): 2.1
hsa-miR-133b fold change, intracellular ([1]; 1 µM): 1.6
hsa-miR-146b-5p fold change, intracellular ([1]; 1 µM): 0.9
hsa-miR-182-5p fold change, intracellular ([1]; 1 µM): 0.9
hsa-miR-185-3p fold change, intracellular ([1]; 1 µM): 1.5
hsa-miR-187-3p fold change, intracellular ([1]; 1 µM): 0.5
hsa-miR-208b-3p fold change, intracellular ([1]; 1 µM): 1.2
hsa-miR-365a-5p fold change, intracellular ([1]; 1 µM): 0.8
hsa-miR-[…] change, intracellular ([1]; 1 µM): 0.8
hsa-miR-7-5p fold change, intracellular ([1]; 3 µM): 0.9
hsa-miR-29a-5p fold change, intracellular ([1]; 3 µM): 4.0
hsa-miR-126-3p fold change, intracellular ([1]; 3 µM): 1.1
hsa-miR-133b fold change, intracellular ([1]; 3 µM): 3.3
hsa-miR-146b-5p fold change, intracellular ([1]; 3 µM): 6.4
hsa-miR-182-5p fold change, intracellular ([1]; 3 µM): 0.8
hsa-miR-185-3p fold change, intracellular ([1]; 3 µM): 7.9
hsa-miR-187-3p fold change, intracellular ([1]; 3 µM): 1.4
hsa-miR-208b-3p fold change, intracellular ([1]; 3 µM): 1.2
hsa-miR-365a-5p fold change, intracellular ([1]; 3 µM): 0.7
hsa-miR-[…] change, intracellular ([1]; 3 µM): 0.8
hsa-miR-7-5p fold change, intracellular ([1]; 10 µM): 0.5
hsa-miR-29a-5p fold change, intracellular ([1]; 10 µM): 7.4
hsa-miR-96-5p fold change, intracellular ([1]; 10 µM): 0.5
hsa-miR-126-3p fold change, intracellular ([1]; 10 µM): 1.8
hsa-miR-133b fold change, intracellular ([1]; 10 µM): 1.1
hsa-miR-146b-5p fold change, intracellular ([1]; 10 µM): 0.4
hsa-miR-182-5p fold change, intracellular ([1]; 10 µM): 0.4
hsa-miR-185-3p fold change, intracellular ([1]; 10 µM): 3.3
hsa-miR-187-3p fold change, intracellular ([1]; 10 µM): 0.6
hsa-miR-208b-3p fold change, intracellular ([1]; 10 µM): 1.6
hsa-miR-365a-5p fold change, intracellular ([1]; 10 µM): 3.9
hsa-miR-[…] change, intracellular ([1]; 10 µM): 0.7
Cell index (CI) MEC ([3]; hiPSC-CM, 72-hour treatment, lowest concentration causing at least 20% change from baseline): 1 µM
RTCA, MEC (CI) ([3]; hiPSC-CM, change ≥20%, Table 2): 1 µM
Beating Rate MEC ([3]; human, 72 h): 0.3 µM
Beating rate (BR) MEC ([3]; human, 72 h): 0.3 µM
Cell Index MEC ([3]; human, 72 h): 1 µM
Contractility Amplitude MEC ([3]; human, 72 h): 10 µM
RTCA, MEC (BR) ([3]; human, 72 h): 0.3 µM
Spike Amplitude (SA) MEC ([3]; human, 72 h): 0.3 µM
Structure (SMILES): Cc1nc(Nc2ncc(C(=O)Nc3c(C)cccc3Cl)s2)cc(N2CCN(CCO)CC2)n1 [Dasatinib]
miRNAs upregulated at the MEC overall (hiPSC-CM pellet) [1]: miR-96-5p, miR-133b, miR-182-5p, miR-185-3p, miR-365a-5p
Cmax total ([2]; Supplementary Table 1): 0.97 µM
Cmax total ([2]; Table 1): 0.97 µM

Structure (SMILES): COc1cccc2c1C(=O)c1c(O)c3c(c(O)c1C2=O)C[C@@](O)(C(C)=O)C[C@@H]3O[C@H]1C[C@H](N)[C@H](O)[C@H](C)O1 [Daunorubicin]
miRNAs hiPSC-CM pellet, MEC overall [1]: 0.1 µM
miRNAs upregulated at the MEC overall (hiPSC-CM pellet) [1]: miR-96 -5p, miR-185-3p, miR-187-3p, miR-365a-5p
Cmax total ([2]; Supplementary Table 1): 0.310 to 7.84 µM
Cmax total ([2]; Table 1): 0.31 to 7.84 µM
RTCA, MEC (CI) ([3]; human): 0.1 µM (CI, BR)
Beating Rate MEC ([3]; human, 72 h): 0.1µM (+21%)
Beating rate (BR) MEC ([3]; human, 72 h): 0.1 (+21%) µM
Contractility Amplitude MEC ([3]; human, 72 h): 0.3µM (-82%)
Field Potential Duration MEC ([3]; human, 72 h): 0.1 µM
RTCA, MEC (BR) ([3]; human, 72 h): 0.1 µM (CI, BR)
Spike Amplitude (SA) MEC ([3]; human, 72 h): 0.1µM (-93%)

miRNAs hiPSC-CM pellet, MEC overall [1]: 0.3 µM
RTCA, MEC (CI) ([3]; hiPSC-CM, change ≥20%, Table 2): 0.3 µM (CI, BR (Q))
Beating Rate MEC ([3]; human, 72 h): 0.3 µM
Beating rate (BR) MEC ([3]; human, 72 h): 0.3 µM
Contractility Amplitude MEC ([3]; human, 72 h): 0.3 µM
Field Potential Duration MEC ([3]; human, 72 h): 0.3 µM
RTCA, MEC (BR) ([3]; human, 72 h): 0.3 µM (CI, BR (Q))
Spike Amplitude (SA) MEC ([3]; human, 72 h): 0.3 µM
Structure (SMILES): COc1cccc2c1C(=O)c1c(O)c3c(c(O)c1C2=O)C[C@@](O)(C(=O)CO)C[C@@H]3O[C@H]1C[C@H](N)[C@@H](O)[C@H](C)O1 [Epirubicin]
miRNAs upregulated at the MEC overall (hiPSC-CM pellet) [1]: miR-7-5p, miR-29a-5p, miR-126-3p, miR-146b-5p, miR-182-5p, miR-184, miR-185-3p, miR-187-3p, miR-208b-3p, miR-365a-5p
Cmax total ([2]; Supplementary Table 1): 16.6 µM
Cmax total ([2]; Table 1): 16.60 µM
